Source: US20230242526A1 (Zentaur Therapeutics International Limited, priority 2020, published 2023)

Molecular target: CDK9/Cyclin T1 (Homo sapiens, UniProt P50750)
Assay: CDK9/Cyclin T1 kinase assay
Assay type: biochemical
Description: (1). Recombinant enzymes CDK1, CDK2, CDK4, CDK6, CDK9, cyclin B1, cyclin A2, cyclin D3, cyclin E1, cyclin T1 were cloned and purified at Wuxi Biortus Biochemistry Co. Ltd.
(8) Peptide substrate-CDK9 (Ahx-GSRTPMY-NH2, Scilight-Peptide, Cat. C0769102).
The test compounds were dissolved and diluted in DMSO. A stock DMSO solution of the test compound of the invention was prepared by dissolving the compound in DMSO to form a 10 mM solution.
2 μL of testing compound solutions and 5 μL of enzyme solution were added into the 384-well microplate followed by a 10 minute incubation. The reaction was then initiated by the addition of 5 μL of peptide substrate and ATP mixture solution and incubated at 27° C. for 30 minutes. The enzyme reaction in each well was terminated by adding 4 μL of 120 mM EDTA solution. Each assay was carried out in duplicates.
DMSO was used as negative control (0%) for enzyme activity. 20 μM Staurosporine was used as positive control (100%) for enzyme activity.
Plates were read for fluorescence on a Caliper EZ Reader II by separating the fluorescent labeled substrate from the enzyme phosphorylation product by electrophoresis. Data were collected and analyzed using GraphPad Prism version 6.0 software.
Dose-response curves were plotted from inhibition data generated, each in duplicate, from 10 point serial dilutions of inhibitory compounds. Concentration of compound was plotted against % kinase activity. To generate IC50 values, the dose-response curves were then fitted to a standard sigmoidal curve and IC50 values were derived by nonlinear regression analysis.

Sequence of CDK9/Cyclin T1 (P50750 whole entry): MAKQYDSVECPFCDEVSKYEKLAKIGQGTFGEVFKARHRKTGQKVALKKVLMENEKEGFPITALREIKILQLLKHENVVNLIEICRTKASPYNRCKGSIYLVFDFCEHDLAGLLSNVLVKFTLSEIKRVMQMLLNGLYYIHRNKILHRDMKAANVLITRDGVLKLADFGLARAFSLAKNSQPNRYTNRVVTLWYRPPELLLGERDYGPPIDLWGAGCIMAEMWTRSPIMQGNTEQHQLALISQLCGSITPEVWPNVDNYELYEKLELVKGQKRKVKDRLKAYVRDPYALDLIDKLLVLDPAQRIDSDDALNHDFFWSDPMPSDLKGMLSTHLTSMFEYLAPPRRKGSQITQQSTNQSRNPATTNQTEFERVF
Sequence of CDK9/Cyclin T1 (O60563 whole entry partner): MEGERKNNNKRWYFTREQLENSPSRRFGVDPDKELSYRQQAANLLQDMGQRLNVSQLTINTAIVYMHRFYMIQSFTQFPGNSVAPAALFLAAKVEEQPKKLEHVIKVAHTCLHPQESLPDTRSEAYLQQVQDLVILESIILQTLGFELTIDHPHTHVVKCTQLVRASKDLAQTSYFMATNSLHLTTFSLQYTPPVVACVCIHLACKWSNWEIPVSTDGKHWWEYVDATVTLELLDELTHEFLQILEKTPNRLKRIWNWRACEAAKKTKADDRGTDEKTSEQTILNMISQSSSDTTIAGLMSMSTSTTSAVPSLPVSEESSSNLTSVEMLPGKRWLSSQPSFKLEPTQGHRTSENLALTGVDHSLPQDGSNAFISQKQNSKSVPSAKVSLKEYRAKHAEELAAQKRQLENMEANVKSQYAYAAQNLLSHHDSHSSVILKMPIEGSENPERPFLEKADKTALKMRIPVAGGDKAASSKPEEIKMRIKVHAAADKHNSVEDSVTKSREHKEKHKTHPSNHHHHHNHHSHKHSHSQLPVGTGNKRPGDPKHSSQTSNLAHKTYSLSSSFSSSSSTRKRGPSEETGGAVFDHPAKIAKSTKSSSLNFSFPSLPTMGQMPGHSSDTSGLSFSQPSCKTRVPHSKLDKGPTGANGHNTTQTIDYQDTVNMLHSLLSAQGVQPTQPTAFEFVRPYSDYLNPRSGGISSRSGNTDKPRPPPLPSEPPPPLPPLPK

IC50 | Structure (SMILES)
3.44 µM | C[C@@]1(O)CCC[C@H]1n1c(=O)c(C(F)F)cc2cnc(NC3CCN(S(C)(=O)=O)CC3)nc21 [Comp. 5, (−)-6-(difluoromethyl)-8-((1R,2R)-2-hydroxy-2-methylcyclopentyl)-2-((1-(methylsulfonyl)piperidin-4-yl)amino)pyrido[2,3-d]pyrimidin-7(8H)-one, reference compound]
3.64 µM | [2H]C(F)(F)c1cc2cnc(NC3CCN(S(C)(=O)=O)CC3)nc2n([C@@H]2CCC[C@@]2(C)O)c1=O [Comp. 28, (−)-6-(difluoromethyl-d)-8-((1R,2R)-2-hydroxy-2-methylcyclopentyl)-2-((1-(methylsulfonyl)piperidin-4-yl)amino)pyrido[2,3-d]pyrimidin-7(8H)-one]
